From patent US7772237B2, “Thio-substituted tricyclic and bicyclic aromatic methanesulfinyl derivatives” (Cephalon France, priority 2004, dated 2010)

System: male Wistar rats
Assay: Evaluation of wake promoting activity in rats (EEG/EMG sleep/wake scoring)
Format: in vivo, rat
Conditions: i.p., 100 mg/kg, p<0.05 vs control groups
Description: Biological Data Methodology: Evaluation of Wake Promoting Activity in Rats
The methodology utilized for evaluating wake promoting activity of test compounds is based on that described by Edgar and Seidel, Journal of Pharmacology and Experimental Therapeutics, 283:757-769, 1997, and incorporated herein in its entirety by reference.
Animal Surgery. Adult, male Wistar rats (275-320 g from Charles River Laboratories, Wilmington, Mass.) were anesthetized (Nembutal, 45 mg/kg, ip.) and surgically prepared with implants for recording of chronic EEG (encephalographic) and EMG (electromyographic) recording. The EEG implants were made from commercially available components (Plastics One, Roanoke, Va.). EEG signals were recorded from stainless steel screw electrodes: 2 frontal (+3.0 mm AP from bregma, ±2.0 mm ML), and 2 occipital (−4.0 mm AP from bregma, ±2.0 mm ML). Two Teflon-coated stainless steel wires were positioned under the nuchal trapezoid muscles for EMG recording. […]
Data acquisition. […] On the day of dosing, data was recorded for 6 to 10 hours beginning at 11 AM.
(i) Drug administration and study design. Compounds were evaluated on groups of from 4 to 8 rats carried out over one or two separate test sessions. […]
Sleep/wake scoring. Sleep and wake activity were determined manually using ICELUS software. […]

## CC(C)(C)OC(=O)N1CCN(C(=O)CSCc2ccc3oc4ccc(F)cc4c3c2)CC1 [Example 26, 4-[2-(8-fluorodibenzofuran-2-yl-methylsulfanyl)acetyl]-piperazine-1-carboxylic acid tert-butyl ester]
  wakefulness compared to vehicle-treated animals: significantly greated wakefulness
